Counter-ions that a name gives are not always drawn.
What was measured:
[1] = target: T1, TRPV1 receptor (Rattus norvegicus, UniProt O35433); experiment: Test of inhibition of the current induced with capsaicin on rat DRGs (whole-cell patch-clamp); assay type: cell-based; conditions: DRG neuron; compound 1 nM; capsaicin response 300 nM; rat DRG neurons
T1 construct: The neurons of the DRG naturally express the TRPV1 receptor; endogenous in cells; host or cells: primary culture of newborn rat dorsal root ganglion neurons
Procedure: Test of Inhibition of the Current Induced with Capsaicin on rat DRGs
• Primary culture of rat dorsal root ganglion (DRG) cells:
The neurons of the DRG naturally express the TRPV1 receptor.
The primary cultures of newborn rat DRGs are prepared using 1-day-old rats. Briefly, after dissection, the ganglions are trypsinized and the cells dissociated by mechanical trituration. The cells are resuspended in an Eagle basal culture medium containing 10% fetal calf serum, 25 mM KCl, 2 mM glutamine, 100 μg/ml gentamicin and 50 ng/ml of NGF, and then deposited on glass slides coated with laminin (0.25×10^6 cells per slide), which are then placed in Corning 12-well dishes. The cells are incubated at 37° C. in a humidified atmosphere containing 5% CO2 and 95% air. Cytosine β-D-arabinoside (1 μM) is added 48 hours after culturing, to prevent the growth of non-neuronal cells. The slides are transferred into experimental chambers for the patch-clamp studies after 7-10 days of culturing.
The measuring chambers (volume 800 μl) containing the cell preparation are placed on the platform of an inverted microscope (Olympus IMT2) equipped with Hoffman optics (Modulation Contrast, New York) and observed at a magnification of 400×. The chambers are continuously gravity-influxed (2.5 ml/min) using a solution distributor accepting 8 inlets and whose sole outlet, consisting of a polyethylene tube (aperture 500 μm), is placed less than 3 mm from the cell under study. The “whole cell” configuration of the patch-clamp technique was used. […] The overall currents (membrane potential set at […]) are recorded with an Axopatch 1 D amplifier (Axon Instruments, Foster city, Calif.), connected to a PC running the Pclamp8 software (Axon Instrument). The current plots are recorded on paper and simultaneously digitized (sampling frequency 15 to 25 Hz) and acquired on the hard drive of the PC.
The application of a 300 nM capsaicin solution induces on the DRG cells (voltage set at −70 mV) an entering cationic current. […] The results are expressed as a percentage of inhibition of the control capsaicin response.

T1 sequence (O35433 whole entry): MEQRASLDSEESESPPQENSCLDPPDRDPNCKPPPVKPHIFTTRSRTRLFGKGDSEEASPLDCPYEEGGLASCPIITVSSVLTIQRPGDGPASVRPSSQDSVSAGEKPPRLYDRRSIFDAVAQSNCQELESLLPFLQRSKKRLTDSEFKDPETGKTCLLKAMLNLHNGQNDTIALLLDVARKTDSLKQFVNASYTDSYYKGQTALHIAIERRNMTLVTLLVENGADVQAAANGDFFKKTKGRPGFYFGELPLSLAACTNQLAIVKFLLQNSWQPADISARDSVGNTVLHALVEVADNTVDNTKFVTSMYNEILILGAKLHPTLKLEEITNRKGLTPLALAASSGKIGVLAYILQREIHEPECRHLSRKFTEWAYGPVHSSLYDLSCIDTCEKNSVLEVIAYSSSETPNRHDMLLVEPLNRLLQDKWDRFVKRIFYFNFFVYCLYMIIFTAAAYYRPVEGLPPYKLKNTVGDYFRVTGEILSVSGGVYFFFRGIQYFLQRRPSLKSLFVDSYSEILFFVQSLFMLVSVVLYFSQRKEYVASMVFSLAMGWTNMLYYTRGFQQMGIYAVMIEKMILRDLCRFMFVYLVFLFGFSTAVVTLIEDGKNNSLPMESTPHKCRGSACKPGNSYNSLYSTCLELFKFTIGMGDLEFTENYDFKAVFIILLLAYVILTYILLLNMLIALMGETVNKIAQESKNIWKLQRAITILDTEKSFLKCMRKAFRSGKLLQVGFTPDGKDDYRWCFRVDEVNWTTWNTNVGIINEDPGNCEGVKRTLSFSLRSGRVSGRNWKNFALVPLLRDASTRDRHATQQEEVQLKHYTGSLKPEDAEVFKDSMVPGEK

SMILES	melting point [°C]	inhibition at 0.001 µM [1] [%]
O=C(Nc1cccc2cnccc12)c1cc2cc(F)ccc2n1Cc1cccc(F)c1	206 to 207	–
O=C(Nc1ccc2ncsc2c1)c1cc2cc(C(F)(F)F)ccc2n1Cc1cccc(F)c1	191 to 192	–
Cc1nc2cc(NC(=O)c3cc4cc(C(F)(F)F)ccc4n3Cc3cccc(F)c3)ccc2o1	182 to 183	–
Cc1nc2cc(NC(=O)c3cc4cc(C(F)(F)F)ccc4n3Cc3cccc(F)c3)ccc2s1	191 to 192	–
O=C(Nc1ccc2cnccc2c1)c1cc2cc(F)ccc2n1Cc1cccc(F)c1	139 to 141	–
Cn1cnc2cc(NC(=O)c3cc4cc(F)ccc4n3Cc3cccc(F)c3)ccc21	248 to 251	–
Cn1cnc2c(NC(=O)c3cc4cc(F)ccc4n3Cc3cccc(F)c3)cccc21	195 to 197	–
O=C(Nc1ccc2[nH]nnc2c1)c1cc2cc(C(F)(F)F)ccc2n1Cc1cccc(F)c1	167 to 174	–
O=C(Nc1ccc2ncccc2c1)c1cc2cc(F)ccc2n1Cc1cccc(F)c1	208 to 210	–
Cn1ncc2cc(NC(=O)c3cc4cc(F)ccc4n3Cc3cccc(F)c3)ccc21	210 to 211	–
Cc1nc2cc(NC(=O)c3cc4cc(F)ccc4n3Cc3cccc(F)c3)ccc2o1	188 to 189	–
O=C(Nc1ccc2ncsc2c1)c1cc2cc(F)ccc2n1Cc1cccc(F)c1	167 to 168	–
Cc1nc2cc(NC(=O)c3cc4cc(F)ccc4n3Cc3cccc(F)c3)ccc2s1	201 to 202	–
O=C(Nc1ccc2[nH]nnc2c1)c1cc2cc(F)ccc2n1Cc1cccc(F)c1	220 to 221	–
Cc1nc2cc(NC(=O)c3cc4cc(F)ccc4n3Cc3cccc(F)c3)ccc2n1C	281 to 282	–
O=C(Nc1ccc2nccnc2c1)c1cc2cc(F)ccc2n1Cc1cccc(F)c1	188 to 189	–
Cn1cnc2ccc(NC(=O)c3cc4cc(F)ccc4n3Cc3cccc(F)c3)cc21	215 to 216	–
O=C(Nc1ccc2ccncc2c1)c1cc2cc(F)ccc2n1Cc1cccc(F)c1 (as salt: HCl)	270 to 272	–
Cc1nc2ccc(NC(=O)c3cc4cc(F)ccc4n3Cc3cccc(F)c3)cc2[nH]1 (as salt: HCl)	195 to 200	–
O=C(Nc1ccc2nc[nH]c2c1)c1cc2cc(F)ccc2n1Cc1cccc(F)c1 (as salt: HCl)	275 to 280	–

SMILES	melting point [°C]	inhibition at 0.001 µM [1] [%]
CN1CCCc2ccc(NC(=O)c3cc4ccccc4n3-c3cccc(C(F)(F)F)c3)cc21 [Compound 2, N-(1-methyl-1,2,3,4-tetrahydroquinol-7-yl)-1-[3-(trifluoromethyl)phenyl]-1H-indole-2-carboxamide]	92 to 95	–
O=C(Nc1ccc2c(c1)NCCC2)c1cc2ccccc2n1-c1cccc(C(F)(F)F)c1 [Compound 4, N-(1,2,3,4-tetrahydroquinol-7-yl)-1-[3-(trifluoromethyl)phenyl]-1H-indole-2-carboxamide]	140 to 143	–
CC1C(=O)NOc2cc(NC(=O)c3cc4ccccc4n3-c3cccc(C(F)(F)F)c3)ccc21 (stereo not drawn) [Compound 5, N-(4-methyl-3-oxo-2H-benzoxazin-7-yl)-1-[3-(trifluoromethyl)phenyl]-1H-indole-2-carboxamide]	198 to 200	–
CC1C(=O)NOc2ccc(NC(=O)c3cc4ccccc4n3-c3cccc(C(F)(F)F)c3)cc21 (stereo not drawn) [Compound 6, N-(4-methyl-3-oxo-2H-benzoxazin-6-yl)-1-[3-(trifluoromethyl)phenyl]-1H-indole-2-carboxamide]	178 to 180	–
O=C(Nc1ccc2occc2c1)c1cc2ccccc2n1-c1cccc(C(F)(F)F)c1 [Compound 8, N-(benzofuran-5-yl)-1-[3-(trifluoromethyl)phenyl]-1H-indole-2-carboxamide]	141 to 143	–
O=C(Nc1ccc2c(c1)CCNO2)c1cc2ccccc2n1-c1cccc(C(F)(F)F)c1 [Compound 10, N-(2,3-dihydrobenzoxazin-6-yl)-1-[3-(trifluoromethyl)phenyl]-1H-indole-2-carboxamide]	90 to 92	–
O=C1Cc2ccc(NC(=O)c3cc4ccccc4n3-c3cccc(C(F)(F)F)c3)cc2ON1 [Compound 11, N-(3-oxo-2H-benzoxazin-7-yl)-1-[3-(trifluoromethyl)phenyl]-1H-indole-2-carboxamide]	214 to 216	–
O=C(Nc1cccc2c1NCCC2)c1cc2ccccc2n1-c1cccc(C(F)(F)F)c1 [Compound 16, N-(1,2,3,4-tetrahydroquinol-8-yl)-1-[3-(trifluoromethyl)phenyl]-1H-indole-2-carboxamide]	93 to 95	–
O=C(Nc1ccc2ocnc2c1)c1cc2ccccc2n1-c1cccc(C(F)(F)F)c1 [Compound 17, N-(benzoxazol-5-yl)-1-[3-(trifluoromethyl)phenyl]-1H-indole-2-carboxamide]	222 to 224	–
Cn1ncc2cc(NC(=O)c3cc4cc(C(F)(F)F)ccc4n3Cc3cccc(F)c3)ccc21 [Compound 19, N-(1-methyl-1H-indazol-5-yl)-5-trifluoromethyl-1-[(3-fluorophenyl)methyl]-1H-indole-2-carboxamide]	–	48
O=C1Cc2cc(NC(=O)c3cc4cc(C(F)(F)F)ccc4n3Cc3cccc(F)c3)ccc2N1 [Compound 25, N-(2-oxoindolin-5-yl)-5-trifluoromethyl-1-[(3-fluorophenyl)methyl]-1H-indole-2-carboxamide]	244 to 246	–
CN1CCCc2ccc(NC(=O)c3cc4cc(C(F)(F)F)ccc4n3Cc3cccc(F)c3)cc21 [Compound 27, N-(1-methyl-1,2,3,4-tetrahydroquinol-7-yl)-5-trifluoromethyl-1-[(3-fluorophenyl)methyl]-1H-indole-2-carboxamide]	146 to 147	–
CS(=O)(=O)N1CCc2cc(NC(=O)c3cc4cc(C(F)(F)F)ccc4n3Cc3cccc(F)c3)ccc21 [Compound 31, N-(1-methylsulfonylindolin-5-yl)-5-trifluoromethyl-1-[(3-fluorophenyl)methyl]-1H-indole-2-carboxamide]	214 to 215	–
O=C1CCc2ccc(NC(=O)c3cc4cc(C(F)(F)F)ccc4n3Cc3cccc(F)c3)cc2N1 [Compound 41, N-(2-oxo-3,4-dihydroquinol-7-yl)-5-trifluoromethyl-1-[(3-fluorophenyl)methyl]-1H-indole-2-carboxamide]	298 to 299	–
O=C1Cc2cc(NC(=O)c3cc4cc(F)ccc4n3Cc3cccc(F)c3)ccc2N1 [Compound 42, N-(2-oxoindolin-5-yl)-5-fluoro-1-[(3-fluorophenyl)methyl]-1H-indole-2-carboxamide]	249 to 250	–
CS(=O)(=O)N1CCc2cc(NC(=O)c3cc4cc(F)ccc4n3Cc3cccc(F)c3)ccc21 [Compound 44, N-(1-methylsulfonylindolin-5-yl)-5-fluoro-1-[(3-fluorophenyl)methyl]-1H-indole-2-carboxamide]	192 to 193	–
CCc1nc2cc(NC(=O)c3cc4cc(C(F)(F)F)ccc4n3Cc3cccc(F)c3)ccc2o1 [Compound 46, N-(2-ethylbenzoxazol-5-yl)-5-trifluoromethyl-1-[(3-fluorophenyl)methyl]-1H-indole-2-carboxamide]	187 to 189	–
O=C(Nc1ccc2oc(-c3ccccc3)nc2c1)c1cc2cc(C(F)(F)F)ccc2n1Cc1cccc(F)c1 [Compound 47, N-(2-phenylbenzoxazol-5-yl)-5-trifluoromethyl-1-[(3-fluorophenyl)methyl]-1H-indole-2-carboxamide]	194 to 195	–
COc1ccc2cc(C(=O)Nc3ccc4c(c3)NC(=O)CC4)n(Cc3ccc(F)cc3)c2c1 [Compound 53, N-(2-oxo-3,4-dihydroquinol-7-yl)-6-methoxy-1-[(4-fluorophenyl)methyl]-1H-indole-2-carboxamide]	255 to 256	–

— patent US7557134B2, “N-(heteroaryl)-1H-indole-2-carboxamide derivatives and their use as vanilloid TRPV1 receptor ligands” (Sanofi-Aventis, priority 2005, dated 2009)
